The record followed here is patent publication US8591878B2, “Therapeutic compounds” (Merck Sharp & Dohme Corp., priority 2008, dated 2013).

Each structure is given as a SMILES string. pIC50: −log10 of the molar value. Read-outs that look alike come from different tables or passages of the source.

The assay deals with subgenomic HCV replicon in Huh-7 cells. Put plainly: Cell-Based HCV Replication Assay (replicon, NS3 Cell-ELISA). Particulars: read-out: Cell based HCV Replication Assay-IC50. On the set-up: species or system hepatitis C virus (HCV). An excerpt:
Another suitable assay is the cellular Replicon or rheplisa assay described as follows:
Cell-Based HCV Replication Assay
Cell clones that stably maintain subgenomic HCV replicon were obtained by transfecting Huh-7 cells with an RNA replicon identical to I377neo/NS3-3′/wt described by V. Lohmann et al., 285 SCIENCE 110 (Jul. 2, 1999) (EMBL-GENBANK No. AJ242652), followed by selection with neomycin sulfate (G418). Viral replication was monitored by measuring the expression of the NS3 protein by an ELISA assay performed directly on cells grown in 96-well microtiter plates (Cell-ELISA) using the anti-NS3 monoclonal antibody 10E5/24 (as described in International Patent Application Publication WO 02/59321). Cells were seeded into 96 well plates at a density of 10^4 cells per well in a final volume of 0.1 ml of DMEM/10% FCS. Two hours after plating, 50 μl of DMEM/10% FCS containing a 3× concentration of inhibitor were added, cells were incubated for 96 hours and then fixed for 10 minutes with ice-cold isopropanol. Each condition was tested in duplicate and average absorbance values were used for calculations. The cells were washed twice with PBS, blocked with 5% non-fat dry milk in PBS+0.1% TRITON X-100+0.02% SDS (PBSTS) and then incubated o/n at 4° C. with the 10E5/24 mab diluted in Milk/PBSTS. After washing 5 times with PBSTS, the cells were incubated for 3 hours at room temperature with Fe-specific anti-mouse IgG conjugated to alkaline phosphatase (Sigma), diluted in Milk/PBSTS. After washing again as above, the reaction was developed with p-nitrophenyl phosphate disodium substrate (Sigma) and the absorbance at 405/620 nm read at intervals. For calculations, we used data sets where samples incubated without inhibitors had absorbance values comprised between 1 and 1.5. The inhibitor concentration that reduced by 50% the expression of NS3 (IC50) was calculated by fitting the data to the Hill equation, Fraction inhibition=1−(Ai−b)/(A0−b)=[I]^n/([I]+IC50) where: • Ai=absorbance value of HBI10 cells supplemented with the indicated inhibitor concentration. • A0=absorbance value of HBI10 cells incubated without inhibitor. • b=absorbance value of Huh-7 cells plated at the same density in the same microtiter plates and incubated without inhibitor. • n=Hill coefficient.

Setting [1] is: Hepatitis C virus, Huh-7 cells with subgenomic HCV replicon, NS3 expression by Cell-ELISA, 96 hours incubation.

With `C=C[C@@H]1C[C@]1(NC(=O)[C@@H]1C[C@@H]2CN1C(=O)[C@H](C1CCCCC1)NC(=O)N1CCC[C@H](C1)OCCCc1cc3c(cc(OCC)nc3cc1OC)O2)C(=O)NS(=O)(=O)C1CC1` [Example 12, (3R,5S,8S,15R)-8-cyclohexyl-N-((1R,2S)-1-{[(cyclopropylsulfonyl)amino]carbonyl}-2-vinylcyclopropyl)-25-ethoxy-21-methoxy-7,10-dioxo-2,16-dioxa-6,9,11,24-tetraazapentacyclo [18.6.2.1^3,6.1^11,15.0^23,27] triaconta-1(27),20,22,23,25,27-hexaene-5-carboxamide], the pIC50 (Hepatitis C virus, Huh-7, 96 h) is 8.40.
Regarding `C=C[C@@H]1C[C@]1(NC(=O)[C@@H]1C[C@@H]2CN1C(=O)[C@H](C1CCCCC1)NC(=O)N1CC[C@@H](C1)OC/C=C/c1cc3c(cc(OCC)nc3cc1OC)O2)C(=O)NS(=O)(=O)C1CC1` [Example 13, (3R,5S,8S,14S,17E)-8-cyclohexyl-N-((1R,2S)-1-{[(cyclopropylsulfonyl)amino]carbonyl}-2-vinylcyclopropyl)-24-ethoxy-20-methoxy-7,10-dioxo-2,15-dioxa-6,9,11,23-tetraazapentacyclo [17.6.2.1^3,6.1^11,14.0^22,26] nonacosa-1(25),17,19,21,23,26-hexaene-5-carboxamide], the negative logarithm of the IC50 (pIC50) under setting [1] was 8.05.
Turning to `C=C[C@@H]1C[C@]1(NC(=O)C1C[C@@H]2CN1C(=O)[C@H](C1CCCC1)NC(=O)N1CC[C@@H](C1)OCCC/C=C/c1cc3ccc(OC)cc3nc1O2)C(=O)NS(=O)(=O)C1CC1` (stereo partly drawn) [Example 17, (1R,13E,19S,25S,28S)-25-cyclopentyl-N-((1R,2S)-1-{[(cyclopropylsulfonyl)amino]carbonyl}-2-vinylcyclopropyl)-7-methoxy-23,26-dioxo-2,18-dioxa-4,22,24,27-tetraazapentacyclo [25.2.1.1^19,22.0^3,12.0^5,10] hentriaconta-3(12),4,5,7,9,10,13-heptaene-28-carboxamide], the negative-log IC50 (pIC50) under setting [1] was 8.40.
The same measure, in the same setting: with `C=C[C@@H]1C[C@]1(NC(=O)[C@@H]1C[C@@H]2CN1C(=O)[C@H](C1CCCC1)NC(=O)N1CC[C@@H](C1)OCCCCCc1cc3ccc(OC)cc3nc1O2)C(=O)NS(=O)(=O)C1CC1` [Example 18, (1R,19S,25S,28S)-25-cyclopentyl-N-((1R,2S)-1-{[(cyclopropylsulfonyl)amino]carbonyl}-2-vinylcyclopropyl)-7-methoxy-23,26-dioxo-2,18-dioxa-4,22,24,27-tetraazapentacyclo [25.2.1.1^19,22.0^3,12.0^5,10] hentriaconta-3(12),4,5,7,9,10-hexaene-28-carboxamide] the figure was 8.15.
In the case of `CC[C@@H]1C[C@]1(NC(=O)[C@@H]1C[C@@H]2CN1C(=O)[C@H](C1CCCC1)NC(=O)N1CC[C@@H](C1)OCCC/C=C/c1cc3ccc(OC)cc3nc1O2)C(=O)NS(=O)(=O)C1CC1` [Example 19, (1R,13E,19S,25S,28S)-25-cyclopentyl-N-((1R,2R)-1-{[(cyclopropylsulfonyl)amino]carbonyl}-2-ethylcyclopropyl)-7-methoxy-23,26-dioxo-2,18-dioxa-4,22,24,27-tetraazapentacyclo [25.2.1.1^19,22.0^3,12.0^5,10] hentriaconta-3(12),4,5,7,9,10,13-heptaene-28-carboxamide], the pIC50 under setting [1] is 8.40.
As for `CC[C@@H]1C[C@]1(NC(=O)[C@@H]1C[C@@H]2CN1C(=O)[C@H](C1CCCC1)NC(=O)N1CC[C@@H](C1)OCCCCCc1cc3ccc(OC)cc3nc1O2)C(=O)NS(=O)(=O)C1CC1` [Example 20, (1R,19S,25S,28S)-25-cyclopentyl-N-((1R,2R)-1-{[(cyclopropylsulfonyl)amino]carbonyl}-2-ethylcyclopropyl)-7-methoxy-23,26-dioxo-2,18-dioxa-4,22,24,27-tetraazapentacyclo [25.2.1.1^19,22.0^3,12.0^5,10] hentriaconta-3(12),4,5,7,9,10-hexaene-28-carboxamide], the pIC50 (Huh-7 cells with subgenomic HCV replicon, NS3 expression by Cell-ELISA, 96 hours incubation) is 7.82.
Regarding `C=C[C@@H]1C[C@]1(NC(=O)[C@@H]1C[C@@H]2CN1C(=O)[C@H](C1CCCC1)NC(=O)N1CC[C@H](C1)OCCC/C=C/c1cc3ccc(OC)cc3nc1O2)C(=O)NS(=O)(=O)C1CC1` [Example 21, (1R,13E,19S,25S,28S)-25-cyclopentyl-N-((1R,2R)-1-{[(cyclopropylsulfonyl)amino]carbonyl}-2-vinylcyclopropyl)-7-methoxy-23,26-dioxo-2,18-dioxa-4,22,24,27-tetraazapentacyclo [25.2.1.1^19,22.0^3,12.0^5,10] hentriaconta-3(12),4,5,7,9,10,13-heptaene-28-carboxamide], under setting [1], the pIC50 was 7.70.
Still for that read-out and setting: with `C=C[C@@H]1C[C@]1(NC(=O)[C@@H]1C[C@@H]2CN1C(=O)[C@H](C1CCCC1)NC(=O)N1CC[C@@H](C1)OC/C=C/c1cc3c(cc(OCC)nc3cc1OC)O2)C(=O)NS(=O)(=O)C1CC1` [Example 22, (3R,5S,8S,14S,17E)-8-cyclopentyl-N-((1R,2S)-1-{[(cyclopropylsulfonyl)amino]carbonyl}-2-vinylcyclopropyl)-24-ethoxy-20-methoxy-7,10-dioxo-2,15-dioxa-6,9,11,23-tetraazapentacyclo [17.6.2.1^3,6.1^11,14.0^22,26] nonacosa-1(25),17,19,21,23,26-hexaene-5-carboxamide] the figure was 7.96.
Same read-out and setting: with `CCOc1cc2c3cc(c(OC)cc3n1)/C=C/CO[C@H]1CCN(C1)C(=O)N[C@@H](C1CCCC1)C(=O)N1C[C@@H](C[C@H]1C(=O)N[C@]1(C(=O)NS(=O)(=O)C3CC3)C[C@H]1CC)O2` [Example 23, (3R,5S,8S,14S,17E)-8-cyclopentyl-N-((1R,2R)-1-{[(cyclopropylsulfonyl)amino]carbonyl}-2-ethylcyclopropyl)-24-ethoxy-20-methoxy-7,10-dioxo-2,15-dioxa-6,9,11,23-tetraazapentacyclo [17.6.2.1^3,6.1^11,14.0^22,26] nonacosa-1(25),17,19,21,23,26-hexaene-5-carboxamide] the figure was 8.15; with `C=C[C@@H]1C[C@]1(NC(=O)[C@@H]1C[C@@H]2CN1C(=O)[C@H](C1CCCC1)NC(=O)N1CC[C@H](COCCCc3nc4ccc(OC)cc4cc3O2)C1)C(=O)NS(=O)(=O)C1CC1` [Example 25, (1R,18S,24S,27S)-24-cyclopentyl-N-((1R,2R)-1-{[(cyclopropylsulfonyl)amino]carbonyl}-2-vinylcyclopropyl)-7-methoxy-22,25-dioxo-2,16-dioxa-11,21,23,26-tetraazapentacyclo [24.2.1.1^18,21.0^3,12.0^5,10] triaconta-3(12),4,5,7,9,10-hexaene-27-carboxamide], 8.15.
On the same count and under the same terms, with `C=C[C@@H]1C[C@]1(NC(=O)[C@@H]1C[C@@H]2CN1C(=O)[C@H](C1CCCC1)NC(=O)N1CCC[C@@H]1COCCCc1ccc3nc(OCC)nc(c3c1)O2)C(=O)NS(=O)(=O)C1CC1` [Example 28, (6R,8S,11S,17aR)-11-cyclopentyl-N-((1R,2S)-1-{[(cyclopropylsulfonyl)amino]carbonyl}-2-vinylcyclopropyl)-3-ethoxy-10,13-dioxo-7,8,10,11,12,13,16,17,17a,18, 20,21-dodecahydro-6H,15H-1,22-(ethanediylidene)-6,9-methanopyrimido [4,5-n] pyrrolo[2,1-c][1,13,4,6,9] dioxatriazacyclononadecine-8-carboxamide] the figure was 8.22; with `C=C[C@@H]1C[C@]1(NC(=O)[C@@H]1C[C@@H]2CN1C(=O)[C@H](C1CCCC1)NC(=O)N1CC[C@@H](C1)OC/C=C/Cn1cc(C)c3c4ccccc4nc(c31)O2)C(=O)NS(=O)(=O)C1CC1` [Example 31, (4E,8S,14S,17S,19R)-14-cyclopentyl-N-((1R,2S)-1-{[(cyclopropylsulfonyl)amino]carbonyl}-2-vinylcyclopropyl)-1-methyl-12,15-dioxo-3,6,9,10,12,13,14,15,18,19-decahydro-8H,17H-8,11:16,19-dimethano-7,20-dioxa-2a,11,13,16,21-pentaazabenzo[g] cyclohenicosa[1,2,3-cd]indene-17-carboxamide], 8.15.
With `C=C[C@@H]1C[C@]1(NC(=O)[C@@H]1C[C@@H]2CN1C(=O)[C@H](C1CCCC1)CNC(=O)N1CC[C@H](COCCCc3nc4ccc(OC)cc4cc3O2)C1)C(=O)NS(=O)(=O)C1CC1` [Example 33, (1R,18S,24S,27S)-24-cyclopentyl-N-((1R,2R)-1-{[(cyclopropylsulfonyl)amino]carbonyl}-2-vinylcyclopropyl)-7-methoxy-22,25-dioxo-2,16-dioxa-11,21,23,26-tetraazapentacyclo [24.2.1.1^18,21.0^3,12.0^5,10] triaconta-3(12),4,5,7,9,10-hexaene-27-carboxamide], under setting [1], the pIC50 is less than 7.00.
